From patent US8778964B2, “Hydroxy-substituted imidazo[1,2-a]-pyridinecarboxamides and their use” (Bayer Pharma Aktiengesellschaft, priority 2012, dated 2014)
Structures can show the parent of a compound that is named as a salt.

These compounds were tested on recombinant guanylate cyclase reporter cell line (assay: Action on recombinant guanylate cyclase reporter cell line (MEC)). Settings: in some cases mean values obtained from individual determinations.
Format: cell-based
Summary of the method: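 Cell-based reporter assay with recombinant guanylate cyclase expressed in a reporter cell line, per a published method. Activity reported as minimal effective concentration (MEC), in some cases as the mean of individual determinations.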

Point of comparison: CCCC[C@H](CO)NC(=O)c1c(C)nc2c(OCc3c(F)ccc(F)c3F)cccn12 [Example 2, N-[(2R)-1-hydroxyhexan-2-yl]-2-methyl-8-[(2,3,6-trifluorobenzyl)oxy]imidazo[1,2-a]pyridine-3-carboxamide], minimal effective concentration 0.03 µM. Against it:
- CCCOCC(CO)NC(=O)c1c(C)nc2c(OCc3c(F)cccc3F)cccn12 (racemic) [Example 162, rac-8-[(2,6-Difluorobenzyl)oxy]-N-(1-hydroxy-3-propoxypropan-2-yl)-2-methylimidazo[1,2-a]-pyridine-3-carboxamide] — 10-fold higher, 0.3 µM
- CC[C@H](CO)NC(=O)c1c(C)nc2c(OCc3ccccc3)cccn12 [Example 17, 8-(Benzyloxy)-N-[(2R)-1-hydroxybutan-2-yl]-2-methylimidazo[1,2-a]pyridine-3-carboxamide] — 100-fold higher, 3 µM
- CCCC[C@H](CO)NC(=O)c1c(C)nc2c(OCc3ccccc3Cl)cccn12 [Example 4, 8-[(2-chlorobenzyl)oxy]-N-[(2R)-1-hydroxyhexan-2-yl]-2-methylimidazo[1,2-a]pyridine-3-carboxamide] — 3.3-fold higher, 0.1 µM
- Cc1nc2c(OCc3c(F)cccc3F)cccn2c1C(=O)N[C@@H](CO)Cc1ccccc1 [Example 38, 8-[(2,6-difluorobenzyl)oxy]-N-[(2R)-1-hydroxy-3-phenylpropan-2-yl]-2-methylimidazo[1,2-a]-pyridine-3-carboxamide] — 10-fold higher, 0.3 µM
- CCCc1nc2c(OCC3CCCCC3)cccn2c1C(=O)N[C@@H](C)CO [Example 57, 8-(cyclohexylmethoxy)-N-[(2S)-1-hydroxypropan-2-yl]-2-propylimidazo[1,2-a]-pyridine-3-carboxamide] — 33-fold higher, 1 µM
- Cc1cc(OCCC(C(F)(F)F)C(F)(F)F)c2nc(C)c(C(=O)NC3c4ccccc4CC3O)n2c1 (stereo not drawn) [Example 172, N-(2-Hydroxy-2,3-dihydro-1H-inden-1-yl)-2,6-dimethyl-8-[4,4,4-trifluoro-3-(trifluoromethyl)-butoxy]imidazo[1,2-a]pyridine-3-carboxamide] — 33-fold higher, 1 µM
- Cc1nc2c(OCc3c(F)cccc3F)cccn2c1C(=O)N[C@@H](CO)CC[C@@H](O)C(F)(F)F [Example 135, 8-[(2,6-difluorobenzyl)oxy]-2-methyl-N-[(2R, 5R)-6,6,6-trifluoro-1,5-dihydroxyhexan-2-yl]imidazo[1,2-a]pyridine-3-carboxamide trifluoroacetate (1:1)] — 3.3-fold higher, 0.1 µM
- Cc1nc2c(OCc3c(F)cccc3F)cccn2c1C(=O)N[C@@H](CO)C(C)(C)C [Example 35, 8-[(2,6-difluorobenzyl)oxy]-N-[(2R)-1-hydroxy-3,3-dimethylbutan-2-yl]-2-methylimidazo[1,2-a]-pyridine-3-carboxamide] — 10-fold higher, 0.3 µM
- Cc1nc2c(OCc3c(F)cccc3F)cccn2c1C(=O)NC[C@H](O)c1ccccc1 [Example 33, 8-[(2,6-difluorobenzyl)oxy]-N-[(2R)-2-hydroxy-2-phenylethyl]-2-methylimidazo[1,2-a]pyridine-3-carboxamide] — 10-fold higher, 0.3 µM
- Cc1nc2c(OCc3c(F)cccc3F)cccn2c1C(=O)NCC(O)COc1ccccc1 (stereo not drawn) [Example 137, 8-[(2,6-difluorobenzyl)oxy]-N-(2-hydroxy-3-phenoxypropyl)-2-methylimidazo[1,2-a]-pyridine-3-carboxamide] — 100-fold higher, 3 µM
- Cc1nc2c(OCc3c(F)cccc3F)cccn2c1C(=O)NC(c1ccc(Cl)cc1)C(C)(C)O (racemic) [Example 151, rac-N-[1-(4-chlorophenyl)-2-hydroxy-2-methylpropyl]-8-[(2,6-difluorobenzyl)oxy]-2-methylimidazo[1,2-a]pyridine-3-carboxamide] — 10-fold higher, 0.3 µM
- Cc1nc2c(OCC3CCCCC3)cccn2c1C(=O)NC1(CO)CCCC1 [Example 92, 8-(cyclohexylmethoxy)-N-[1-(hydroxymethyl)cyclopentyl]-2-methylimidazo[1,2-a]pyridine-3-carboxamide] — 33-fold higher, 1 µM
- Cc1nc2c(OCc3c(F)cccc3F)cccn2c1C(=O)NC(C)C(O)C(F)(F)F (single isomer, unassigned) [Example 146, 8-[(2,6-Difluorobenzyl)oxy]-2-methyl-N-(4,4,4-trifluoro-3-hydroxybutan-2-yl)imidazo[1,2-a]-pyridine-3-carboxamide] — 33-fold higher, 1.0 µM
- Cc1nc2c(OCc3c(F)cccc3F)cccn2c1C(=O)NC(CO)CCC(F)(F)F (racemic) [Example 101, rac-8-[(2,6-difluorobenzyl)oxy]-2-methyl-N-(5,5,5-trifluoro-1-hydroxypentan-2-yl)-imidazo[1,2-a]pyridine-3-carboxamide trifluoroacetate] — 3.3-fold higher, 0.1 µM
